We go through four compounds from article PMC12203697, “Bioactive constituents from the edible seaweed Halymenia hawaiiana (Rhodophyta)” (Pharmaceutical Biology, 2025).

≈ marks a conversion by molar mass, not a printed value. Like-named read-outs stand apart in the source and are kept apart here.

The subject of experiment [1] is LPS-induced nitric oxide (NO) production in RAW 264.7 cells. Put plainly: Inhibition of NO generation in LPS-induced RAW 264.7 cells (Griess). The format is cell-based, murine. To be noted: for IC50: Mus musculus. Here is the method: The nitrite concentration in the culture medium was measured to indicate nitric oxide (NO) production as previously described (Min et al. [2009]). The murine macrophage RAW 264.7 cell line was obtained from ATCC, Manassas, VA, USA, and maintained in Dulbecco’s modified Eagle’s medium supplemented with 10% heat-inactivated FBS (Cat. No. A5670801, Gibco BRL Co, Grand Island, NY, USA), penicillin G (100 units/mL) (Cat. No. P7794, Sigma-Aldrich, USA), streptomycin (100 µg/mL) (Cat. No. S9137, Sigma-Aldrich, USA), and L-glutamine (2 mM) (Cat. No. 25030081, Gibco BRL Co, Grand Island, NY, USA). In brief, RAW 264.7 cells were seeded at a density of 4 × 10^4 cells/well in phenol red-free media (Cat. No. 11835030, Gibco, USA) in a 96-well plate, and incubated in a humidified incubator with 5% CO2 at 37 °C for 24 hr. […] The concentration of nitric oxide production was assessed using the Griess reagent, which consists of a 1:1 (v/v) mixture of 1% sulfanilamide (Cat No. A13001, Alfa Aesar, Massachusetts, USA) in H3PO4 and N-(1-naphthyl)ethylenediamine dihydrochloride (Cat. No. 102397, MP Biomedicals, USA). Absorbance was recorded with a microplate reader (SynergyMx, BioTeK, Winooski, VT, USA) at 540 nm. A standard curve was created using sodium nitrite (1–100 μM) (Cat. No. 44227, Alfa Aesar, Massachusetts, USA). A sulforhodamine B (SRB) assay was employed to assess the cellular viability of the samples with RAW 264.7 cells under a similar experimental setup. The final % inhibition of NO production was adjusted based on cell viability.

A further experiment concerns MRSA HBP10. As to the kind of experiment: Antibacterial MIC, broth microdilution with resazurin. The format is cell-based, Staphylococcus aureus. The conditions noted are these: MRSA HBP10, Gram-positive. The source says:
(§1) Methicillin-resistant Staphylococcus aureus (MRSA), methicillin-susceptible S. aureus (MSSA), and Gram-negative clinical isolates of bacteria [Escherichia coli (9637) and Serratia marcescens ATCC 13880] were used for this study. […] MSSA HBP10, MSSA LUU7, MSSA R113, S. aureus ONE9, and MSSA POB2 were isolated in Hawaiʻi (Gerken et al. [2021]). Mueller Hinton Broth (MHB, GTIN:00382902979630, Becton, Dickinson and Company, Franklin Lakes, NJ, USA) and Mueller Hinton Agar (MHA, GTIN:00382902252504, Becton, Dickinson and Company, Franklin Lakes, NJ, USA,) were used for bacterial inoculation. MRSA was a pathogen strain causing hospital-acquired infections in 1982. This strain easily acquires resistance to antibiotics, such as vancomycin. MSSA strains isolated from the Island of Hawaiʻi included: Honolʻii Beach Park (HBP10) carry the genes erm(C), aph(3′)-III, and mecA, which provide resistance to macrolide, aminoglycoside, and beta-lactam antibiotics, respectively; Wailuku River (LUU7) which contains the blaZ gene (beta-lactam resistance) (Gerken et al. [2021]). Richardson’s Beach Park (R113) and Onekahakaha (ONE9) which is known for its virulence factors (hlgA, hlgB, hlgC, lukD, and lukE).
(§2) The minimum inhibitory concentrations (MICs) were determined using a two-fold serial dilution method with MHB following the recommendations of the Clinical and Laboratory Standards Institute (CLSI [2012]; Elshikh et al. [2016]). In brief, serial two-fold dilutions of the samples in DMSO were mixed with MHB in a 96-well microplate. Then, 50 µL of bacteria suspension was added to each well, resulting in a final concentration of 1 × 10^4 colony-forming units/well. The plates were incubated at 35–37 °C for 18–24 hr. After incubation, 10 µL of 0.18% resazurin (Cat. No. R7017, Sigma-Aldrich, USA) was added to each well (Elshikh et al. [2016]). The MIC was assessed within 2–3 hr after the addition of resazurin. All antimicrobial assays were performed in triplicate, using vancomycin (Cat. No. SBR00001, Sigma-Aldrich, USA) and gentamicin (Cat. No. G1397, Sigma-Aldrich, USA) as standard controls.

In the next experiment the test system is MRSA POB2. The description is as above. The format is cell-based, Staphylococcus aureus. The conditions noted are these: Staphylococcus aureus; MRSA POB2, Gram-positive; read-out: MIC.
Source text: as §1, §2

Another experiment deals with S. aureus NEWMAN. Described as above. It is filed as cell-based, Staphylococcus aureus. The conditions noted are these: S. aureus NEWMAN, Gram-positive.
Source text: as §1, §2

Where [2] appears, read: Staphylococcus aureus, read-out: MIC.

As a reminder, the MIC is the least concentration at which growth counts as inhibited. The term IC50 denotes the concentration at which inhibition is half-maximal.

Take `Nc1ccn([C@H]2C[C@H](O)[C@@H](CO)O2)c(=O)n1` [Compound 1, deoxycytidine]: in experiment [1] (RAW 264.7 cells, LPS-induced, highest concentration 50 μg/mL), the “NO inhibitory activity (in words)” value is “no significant NO inhibitory activity”. Also, the MIC in the experiment with MRSA HBP10 (setting [2]), in the experiment with MRSA POB2 and in the experiment on S. aureus NEWMAN (setting [2]) was 128 µg/mL (≈ 563 µM) each time.

On to `CC(C)CCC[C@@H](C)[C@H]1CC[C@H]2[C@@H]3CC=C4C[C@@H](O)CC[C@]4(C)[C@H]3CC[C@]12C` [Compound 9, cholesterol], for which the IC50 in experiment [1] (RAW264.7, RAW 264.7 cells, LPS 1 μg/mL, adjusted for cell viability, read-out: IC50, inhibition of LPS-induced NO production) was 50.2 ± 2.2 µM. In addition, the “inhibition of NO production at 5 µg/ml (in words)” value in experiment [1] (RAW 264.7 cells, LPS-induced) is recorded as “significant (p > 0.001) inhibition”. Besides, the MIC with MRSA HBP10 (setting [2]) came to 128 µg/mL (≈ 331 µM); with MRSA POB2, 128 µg/mL (≈ 331 µM); in the experiment on S. aureus NEWMAN (setting [2]), 64 µg/mL (≈ 166 µM).

On to `CC(C)CCC[C@@H](C)[C@H]1CCC2[C@@]34C=C[C@]5(C[C@@H](O)CC[C@]5(C)C3CC[C@@]21C)OO4` (stereo partly drawn) [Compound 10, 7-dehydrochoresterol peroxide], for which, in experiment [1] (RAW264.7, read-out: IC50, inhibition of LPS-induced NO production), the half-maximal inhibitory concentration (IC50) worked out at 53.6 ± 2.3 µM. Also, the “inhibition of NO production at 5 µg/ml (in words)” value in experiment [1] (RAW 264.7 cells, LPS-induced) is “significant (p > 0.001) inhibition”. Also, the minimum inhibitory concentration (MIC) in the experiment with MRSA HBP10 was 32 µg/mL (≈ 76.8 µM); in the experiment on MRSA HBP10 (setting [2]) it was 32 µg/mL (≈ 76.8 µM); in the experiment on MRSA POB2 it was 128 µg/mL (≈ 307 µM); in the experiment on S. aureus NEWMAN it was 8 µg/mL (≈ 19.2 µM); in the experiment on S. aureus NEWMAN (setting [2]) it was 8 µg/mL (≈ 19.2 µM).

With `CC(C)CCC[C@@H](C)[C@H]1CCC2[C@]1(C)CC=C1[C@]23C=C[C@]2(C[C@@H](O)CC[C@]12C)OO3` (stereo partly drawn) [Compound 11, (3β-5α-8α)5,8-epidioxycholesta-6,9(1)-diene-3-ol], the minimum inhibitory concentration (MIC) was 64 µg/mL (≈ 154 µM) in the experiment on MRSA HBP10; 64 µg/mL (≈ 154 µM) in the experiment on MRSA HBP10 (setting [2]); 128 µg/mL (≈ 309 µM) with MRSA POB2; 8 µg/mL (≈ 19.3 µM) in the experiment on S. aureus NEWMAN; 8 µg/mL (≈ 19.3 µM) in the experiment on S. aureus NEWMAN (setting [2]).
